According to patent US11000033B2, “Ketone or oxime compound, and herbicide” (NISSAN CHEMICAL CORPORATION, priority 2014, dated 2021):

What was measured:
Assay type in all cases: in vivo
Conditions in all cases: 320 g/ha, 3 weeks after application
rice plant = assay: Test Example 5: effect on crop by foliage application, plastic box (symbol b)
Source text: (§1) Herbicidal Effect Test by Foliage Application
(§2) Sterilized diluvial soil was placed in a plastic box having a length of 21 cm, a width of 13 cm, and a depth of 7 cm. Each of the seeds of Digitaria ciliaris, Setaria viridis, Echinochloa crus-galli var. crus-galli, Avena fatua, Alopecurus myosuroides, Lolium multiflorum Lam., Apera spica-venti, Abutilon theophrasti, Amaranthus retroflexus, Chenopodium album, Stellaria media, Galium spurium, Veronica persica, corn, soybean, rice plant, wheat, beet, and rapeseed was sowed in a spot-like manner and was covered with the soil of a thickness of about 1.5 cm. Thereafter, the plants were grown in the greenhouse of 25° C. to 30° C.

Lolium multiflorum Lam. = assay: Test Example 5: herbicidal effect by foliage application, plastic box (symbol K)
Source text: as §1
as §2, with “30° C. After the plants were grown for 14 days, the emulsion agent of the compound of the present invention prepared in accordance with Formulation Example 2 was diluted with water so as to be a predetermined herbicide amount and the diluted emulsion agent was uniformly applied to a foliage part with a small-size spray. 3 weeks later from the herbicide application, the effect to each plant was investigated in accordance with the criteria of Test Example 1.” for “30° C.”

Galium spurium = assay: Test Example 5: herbicidal effect by foliage application, plastic box (symbol Q)
Source text: as §1
as §2, with “30° C. After the plants were grown for 14 days, the emulsion agent of the compound of the present invention prepared in accordance with Formulation Example 2 was diluted with water so as to be a predetermined herbicide amount and the diluted emulsion agent was uniformly applied to a foliage part with a small-size spray. 3 weeks later from the herbicide application, the effect to each plant was investigated in accordance with the criteria of Test Example 1.” for “30° C.”

Amaranthus retroflexus = assay: Test Example 5: herbicidal effect by foliage application, plastic box (symbol N)
Source text: as §1
as §2, with “30° C. After the plants were grown for 14 days, the emulsion agent of the compound of the present invention prepared in accordance with Formulation Example 2 was diluted with water so as to be a predetermined herbicide amount and the diluted emulsion agent was uniformly applied to a foliage part with a small-size spray. 3 weeks later from the herbicide application, the effect to each plant was investigated in accordance with the criteria of Test Example 1.” for “30° C.”

Veronica persica = assay: Test Example 5: herbicidal effect by foliage application, plastic box (symbol R)
Source text: as §1
as §2, with “30° C. After the plants were grown for 14 days, the emulsion agent of the compound of the present invention prepared in accordance with Formulation Example 2 was diluted with water so as to be a predetermined herbicide amount and the diluted emulsion agent was uniformly applied to a foliage part with a small-size spray. 3 weeks later from the herbicide application, the effect to each plant was investigated in accordance with the criteria of Test Example 1.” for “30° C.”

Digitaria ciliaris = assay: Test Example 5: herbicidal effect by foliage application, plastic box (symbol F)
Source text: as §1
as §2, with “30° C. After the plants were grown for 14 days, the emulsion agent of the compound of the present invention prepared in accordance with Formulation Example 2 was diluted with water so as to be a predetermined herbicide amount and the diluted emulsion agent was uniformly applied to a foliage part with a small-size spray. 3 weeks later from the herbicide application, the effect to each plant was investigated in accordance with the criteria of Test Example 1.” for “30° C.”

soybean = assay: Test Example 5: effect on crop by foliage application, plastic box (symbol d)
Source text: as §1, §2

rapeseed = assay: Test Example 5: effect on crop by foliage application, plastic box (symbol g)
Source text: as §1, §2

Avena fatua = assay: Test Example 5: herbicidal effect by foliage application, plastic box (symbol I)
Source text: as §1
as §2, with “30° C. After the plants were grown for 14 days, the emulsion agent of the compound of the present invention prepared in accordance with Formulation Example 2 was diluted with water so as to be a predetermined herbicide amount and the diluted emulsion agent was uniformly applied to a foliage part with a small-size spray. 3 weeks later from the herbicide application, the effect to each plant was investigated in accordance with the criteria of Test Example 1.” for “30° C.”

Stellaria media = assay: Test Example 5: herbicidal effect by foliage application, plastic box (symbol P)
Source text: as §1
as §2, with “30° C. After the plants were grown for 14 days, the emulsion agent of the compound of the present invention prepared in accordance with Formulation Example 2 was diluted with water so as to be a predetermined herbicide amount and the diluted emulsion agent was uniformly applied to a foliage part with a small-size spray. 3 weeks later from the herbicide application, the effect to each plant was investigated in accordance with the criteria of Test Example 1.” for “30° C.”

Chenopodium album = assay: Test Example 5: herbicidal effect by foliage application, plastic box (symbol O)
Source text: as §1
as §2, with “30° C. After the plants were grown for 14 days, the emulsion agent of the compound of the present invention prepared in accordance with Formulation Example 2 was diluted with water so as to be a predetermined herbicide amount and the diluted emulsion agent was uniformly applied to a foliage part with a small-size spray. 3 weeks later from the herbicide application, the effect to each plant was investigated in accordance with the criteria of Test Example 1.” for “30° C.”

beet = assay: Test Example 5: effect on crop by foliage application, plastic box (symbol f)
Source text: as §1, §2

Abutilon theophrasti = assay: Test Example 5: herbicidal effect by foliage application, plastic box (symbol M)
Source text: as §1
as §2, with “30° C. After the plants were grown for 14 days, the emulsion agent of the compound of the present invention prepared in accordance with Formulation Example 2 was diluted with water so as to be a predetermined herbicide amount and the diluted emulsion agent was uniformly applied to a foliage part with a small-size spray. 3 weeks later from the herbicide application, the effect to each plant was investigated in accordance with the criteria of Test Example 1.” for “30° C.”

Setaria viridis = assay: Test Example 5: herbicidal effect by foliage application, plastic box (symbol G)
Source text: as §1
as §2, with “30° C. After the plants were grown for 14 days, the emulsion agent of the compound of the present invention prepared in accordance with Formulation Example 2 was diluted with water so as to be a predetermined herbicide amount and the diluted emulsion agent was uniformly applied to a foliage part with a small-size spray. 3 weeks later from the herbicide application, the effect to each plant was investigated in accordance with the criteria of Test Example 1.” for “30° C.”

[1] = system: Echinochloa crus-galli var. crus-galli; assay: Test Example 5: herbicidal effect by foliage application, plastic box (symbol H)
Source text: as §1
as §2, with “30° C. After the plants were grown for 14 days, the emulsion agent of the compound of the present invention prepared in accordance with Formulation Example 2 was diluted with water so as to be a predetermined herbicide amount and the diluted emulsion agent was uniformly applied to a foliage part with a small-size spray. 3 weeks later from the herbicide application, the effect to each plant was investigated in accordance with the criteria of Test Example 1.” for “30° C.”

Alopecurus myosuroides = assay: Test Example 5: herbicidal effect by foliage application, plastic box (symbol J)
Source text: as §1
as §2, with “30° C. After the plants were grown for 14 days, the emulsion agent of the compound of the present invention prepared in accordance with Formulation Example 2 was diluted with water so as to be a predetermined herbicide amount and the diluted emulsion agent was uniformly applied to a foliage part with a small-size spray. 3 weeks later from the herbicide application, the effect to each plant was investigated in accordance with the criteria of Test Example 1.” for “30° C.”

corn = assay: Test Example 5: effect on crop by foliage application, plastic box (symbol c)
Source text: as §1, §2

wheat = assay: Test Example 5: effect on crop by foliage application, plastic box (symbol e)
Source text: as §1, §2

Apera spica-venti = assay: Test Example 5: herbicidal effect by foliage application, plastic box (symbol L)
Source text: as §1
as §2, with “30° C. After the plants were grown for 14 days, the emulsion agent of the compound of the present invention prepared in accordance with Formulation Example 2 was diluted with water so as to be a predetermined herbicide amount and the diluted emulsion agent was uniformly applied to a foliage part with a small-size spray. 3 weeks later from the herbicide application, the effect to each plant was investigated in accordance with the criteria of Test Example 1.” for “30° C.”

CON=C(C)CC1CC(OC(=O)N(c2ccccc2)C(C)C)=C(c2c(C)cc(C)cc2C)C1=O (stereo not shown) [1-127]
b: directly sowed rice plant, effect on crop (criteria 0-5) (rice plant): 0 (Herbicidal ratio of 5% or lower (almost no effect))
K: Lolium multiflorum Lam., herbicidal effect (criteria 0-5) (Lolium multiflorum Lam.): 1 (Herbicidal ratio of 5% or higher and lower than 20%)
Q: Galium spurium, herbicidal effect (criteria 0-5) (Galium spurium): 0 (Herbicidal ratio of 5% or lower (almost no effect))
N: Amaranthus retroflexus, herbicidal effect (criteria 0-5) (Amaranthus retroflexus): 0 (Herbicidal ratio of 5% or lower (almost no effect))
R: Veronica persica, herbicidal effect (criteria 0-5) (Veronica persica): 0 (Herbicidal ratio of 5% or lower (almost no effect))
F: Digitaria ciliaris, herbicidal effect (criteria 0-5) (Digitaria ciliaris): 0 (Herbicidal ratio of 5% or lower (almost no effect))
d: soybean, effect on crop (criteria 0-5) (soybean): 0 (Herbicidal ratio of 5% or lower (almost no effect))
g: rapeseed, effect on crop (criteria 0-5) (rapeseed): 0 (Herbicidal ratio of 5% or lower (almost no effect))
I: Avena fatua, herbicidal effect (criteria 0-5) (Avena fatua): 0 (Herbicidal ratio of 5% or lower (almost no effect))
P: Stellaria media, herbicidal effect (criteria 0-5) (Stellaria media): 0 (Herbicidal ratio of 5% or lower (almost no effect))
O: Chenopodium album, herbicidal effect (criteria 0-5) (Chenopodium album): 0 (Herbicidal ratio of 5% or lower (almost no effect))
f: beet, effect on crop (criteria 0-5) (beet): 0 (Herbicidal ratio of 5% or lower (almost no effect))
M: Abutilon theophrasti, herbicidal effect (criteria 0-5) (Abutilon theophrasti): 0 (Herbicidal ratio of 5% or lower (almost no effect))
G: Setaria viridis, herbicidal effect (criteria 0-5) (Setaria viridis): 0 (Herbicidal ratio of 5% or lower (almost no effect))
H: Echinochloa crus-galli var. crus-galli, herbicidal effect (criteria 0-5) [1]: 0 (Herbicidal ratio of 5% or lower (almost no effect))
J: Alopecurus myosuroides, herbicidal effect (criteria 0-5) (Alopecurus myosuroides): 1 (Herbicidal ratio of 5% or higher and lower than 20%)
c: corn, effect on crop (criteria 0-5) (corn): 0 (Herbicidal ratio of 5% or lower (almost no effect))
e: wheat, effect on crop (criteria 0-5) (wheat): 0 (Herbicidal ratio of 5% or lower (almost no effect))
L: Apera spica-venti, herbicidal effect (criteria 0-5) (Apera spica-venti): 0 (Herbicidal ratio of 5% or lower (almost no effect))
